The target of this assay is T1, Purine nucleoside phosphorylase (PNPase) (Homo sapiens, UniProt P00491).
T1 construct: Purine nucleoside phosphorylase (PNPase) was purified from human erythrocytes; from tissue; host or cells: human erythrocytes
T1 sequence (P00491 1-289): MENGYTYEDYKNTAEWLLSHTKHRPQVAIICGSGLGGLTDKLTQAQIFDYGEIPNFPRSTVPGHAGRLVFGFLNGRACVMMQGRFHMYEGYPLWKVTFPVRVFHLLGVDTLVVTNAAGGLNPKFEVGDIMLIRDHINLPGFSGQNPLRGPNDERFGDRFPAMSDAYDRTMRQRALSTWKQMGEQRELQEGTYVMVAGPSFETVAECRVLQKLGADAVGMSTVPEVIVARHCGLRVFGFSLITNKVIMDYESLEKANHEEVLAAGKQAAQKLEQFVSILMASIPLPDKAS
Briefly: Inhibition of purine nucleoside phosphorylase, spectrophotometric assay of inosine phosphorolysis coupled with xanthine oxidase. Format: biochemical. How it is done:
Enzymology-Purine nucleoside phosphorylase (PNPase) was purified from human erythrocytes by the procedure of Agarwal et al (1). PNPase and xanthine oxidase were desalted before use (2). […] PNPase was assayed spectrophotometrically as previously described (2). In addition to PNPase, the reaction mixtures contained 0.1 mM inosine, 1 mM potassium phosphate, 100 mM Tris=HCl buffer (pH 7.5), 2µM ZnCl₂, and 0.2 U/ml of xanthine oxidase. […] The percent inhibition (%I) of PNP by a single concentration of inhibitor was measured (3).

Setting [1] is: apparent inhibition constant calculated from percent inhibition at a single inhibitor concentration assuming competitive inhibition, PNPase from human erythrocytes, 0.1 mM inosine, 1 mM potassium phosphate, pH 7.5, 2µM ZnCl₂, read-out: Ki.

Read-outs that look alike come from different tables or passages of the source.

For `Nc1nc(O)c2ncn(CCCCCCCP(=O)(O)CP(=O)(O)O)c2n1` [Compound 4, (((7-(2-amino-1,6-dihydro-6-oxo-9H-purin-9-yl)heptyl)phosphinico)methyl)phosphonic acid], the Ki under setting [1] is 8.3 nM.

On to `Nc1nc2c(ncn2CCCOCP(=O)(O)CP(=O)(O)O)c(=O)[nH]1` [Compound 6, ((((3-(2-amino-1,6-dihydro-6-oxo-9H-purine-9-yl)propoxy)methyl)phosphinico)methyl)phosphonic acid], for which the Ki under setting [1] was 4.5 nM.

For `CCOP(=O)(O)CP(=O)(O)CCCCCn1cnc2c(O)nc(N)nc21` [Compound 5, ethyl hydrogen (((5-(2-amino-1,6-dihydro-6-oxo-9H-purin-9-yl)pentyl)phosphinico)methyl)phosphonate], the Ki is 870 nM.

Regarding `Nc1nc(O)c2ncn(CCCCP(=O)(O)CP(=O)(O)O)c2n1` [Compound 2, (((4-(2-amino-1,6-dihydro-6-oxo-9H-purin-9-yl)butyl)phosphinico)methyl)phosphonic acid], under setting [1], the Ki was 77 nM.

The values above are taken from patent EP0478292A1, “Heterocyclic compounds” (THE WELLCOME FOUNDATION LIMITED, priority 1990, dated 1992).
